Results reported in article PMC6080416, “Spectroscopic Studies as a Toolbox for Biophysical and Chemical Characterization of Lipid-Based Nanotherapeutics” (Frontiers in Chemistry, 2018).

experiment: Fluorescence quenching of n-AS probes in MLVs of EPC (drug location); format: physicochemical; settings: MLVs of EPC labeled with n-AS probes
Protocol: Three independent experiments were carried out.
This type of fluorescence quenching can be described by the Stern-Volmer linear plots (Equation 5 and Figures 7A,B) where the fluorescence emission intensities of the labeled nanocarrier in the absence (I0) and in the presence (I) of the quencher (drugs) are plotted against the quencher concentration [Q] and it is possible to obtain linear relations in which the intercept is zero and the slope corresponds to Stern-Volmer constant, KSVapp (Lakowicz, [2014]):
The Stern-Volmer plots of the fluorescence quenching provoked by increasing concentrations of Indomethacin are not linear and present positive deviations (Figure 7C). Positive deviations from the Stern-Volmer equation are often observed when the extent of quenching is large and these deviations from linearity indicate that the quenching mechanism cannot be explained solely by a collisional mechanism (Lakowicz, [2014]). There is an apparent static quenching component caused by the close proximity of deactivating drug and fluorophore at excitation moment. The quenching is still collisional, but the existence of fluorophores and quenchers located very close to each other causes an immediate fluorescence deactivation and therefore the fluorophore and the drug appear to form non-fluorescent complexes (Lakowicz, [2014]). This type of fluorescence quenching is usually interpreted in terms of a “sphere of action” (Equation 7) within which the possibility of deactivation is equal to unity (Lakowicz, [2014]).
(7) I0/I=(1+KSVapp[Q])e^[Q]Vapp
By representing graphically I0/(Ie^[Q]Vapp) as a function of [Q], linear relations were obtained in which the slope corresponds to KSVapp (Figure 7D). Thus, Indomethacin quenching efficiency followed approximately the same order as that obtained for Acemetacin: 2-AS < 6-AS < 9-AS < 12-AS.

Row | SMILES | Drug location within the lipid nanocarrier inferred from Kqapp
1 | Cc1ccc(C(=O)c2ccc(CC(=O)O)n2C)cc1 [Tolmetin] | preferential location of Tolmetin at the polar headgroup region of the lipid nanocarriers
2 | COc1ccc2c(c1)c(CC(=O)O)c(C)n2C(=O)c1ccc(Cl)cc1 [Indomethacin] | able to reach a more inner location within the lipid nanocarrier
3 | COc1ccc2c(c1)c(CC(=O)OCC(=O)O)c(C)n2C(=O)c1ccc(Cl)cc1 [Acemetacin] | can reach an inner location at the lipid nanocarrier
